Measured values as given in ChEMBL document CHEMBL5352429, “Designed symmetrical β-hairpin peptides for treating multidrug-resistant salmonella typhimurium infections” (Eur J Med Chem, 2022).
The source made the active and inactive calls. Peptide text beside a SMILES is read from it.

Assays:
[1] = system: Salmonella typhimurium; experiment: Antibacterial activity against Salmonella typhimurium DT104 in the presence of NH4Cl by MH broth based assay; assay type: functional, Salmonella enterica subsp. enterica serovar Typhimurium; conditions: Salmonella enterica
[2] = system: Salmonella typhimurium; experiment: Antibacterial activity against Salmonella typhimurium DT104 assessed as reduction in IL-8 production in serum at 20 mg/kg, ip administered for 3 days and measured on day 7; assay type: functional, organism-based; conditions: Salmonella enterica subsp. enterica serovar Typhimurium, time 7.0 day
[3] = system: RAW264.7; experiment: Anti-inflammatory activity in mouse RAW264.7 cells assessed as inhibition of LPS-induced iNOS mRNA expression at 15 ug/ml preincubated with compound for 30 mins followed by LPS stimulation and measured after 4 hrs by RT-PCR analysis; assay type: functional, cell-based; conditions: dose 15.0 µg/ml, time 4.5 hrs
[4] = system: Cell membrane; experiment: Disruption of membrane integrity in Salmonella typhimurium DT104 assessed as increase in fluorescence intensity at 0.5 to 2 times of MIC incubated for 15 mins by PI staining based flow cytometric analysis; assay type: subcellular; conditions: Salmonella enterica subsp. enterica serovar Typhimurium
[5] = Cytotoxicity against mouse RAW264.7 cells infected with Salmonella typhimurium DT104 assessed as cell viability at 1 times of MIC measured at 180 min by MTT assay; assay type: toxicity, cell-based; conditions: RAW264.7 cells infected with Salmonella typhimurium DT104, read-out: Activity
[6] = system: Salmonella typhimurium; experiment: Antibacterial activity against Salmonella typhimurium DT104 assessed as reduction in IL-1beta production in serum at 20 mg/kg, ip administered for 3 days and measured on day 7; assay type: functional, organism-based; conditions: Salmonella enterica subsp. enterica serovar Typhimurium, time 7.0 day
[7] = system: Salmonella typhimurium; experiment: Antibacterial activity against Salmonella typhimurium DT104 assessed as increase in ZO-1 mRNA level in colon at 20 mg/kg, ip administered for 3 days and measured on day 7 by RT-PCR analysis; assay type: functional, organism-based; conditions: Salmonella enterica subsp. enterica serovar Typhimurium, time 7.0 day
[8] = system: Salmonella typhimurium; experiment: Antibacterial activity against Salmonella typhimurium DT104 infected in ICR mouse model assessed as reduction in bacterial translocation to spleen at 2 mg/kg, ip administered for 3 days and measured on day 7 by serial dilution method; assay type: functional, organism-based; conditions: Salmonella enterica subsp. enterica serovar Typhimurium, time 7.0 day
[9] = system: Salmonella typhimurium; experiment: Antibacterial activity against multi-drug resistant Salmonella typhimurium DT104 assessed as inhibition of bacterial growth measured upto 120 mins by MH agar based serial dilution method; assay type: functional, organism-based; conditions: Salmonella enterica subsp. enterica serovar Typhimurium
[10] = system: Salmonella typhimurium; experiment: Antibacterial activity against multi-drug resistant Salmonella typhimurium DT104 infected in ICR mouse model assessed as reduction in bacterial population in fecus at 2 mg/kg, ip administered for 3 days; assay type: functional, organism-based; conditions: Salmonella enterica subsp. enterica serovar Typhimurium, time 3.0 day
[11] = system: Salmonella typhimurium; experiment: Antibacterial activity against Salmonella typhimurium DT104 assessed as reduction in TNF-alpha mRNA level in ileum at 20 mg/kg, ip administered for 3 days and measured on day 7 by RT-PCR analysis; assay type: functional, organism-based; conditions: Salmonella enterica subsp. enterica serovar Typhimurium, time 7.0 day
[12] = system: Salmonella typhimurium; experiment: Antibacterial activity against Salmonella typhimurium DT104 assessed as reduction in IL-6 mRNA level in ileum at 20 mg/kg, ip administered for 3 days and measured on day 7 by RT-PCR analysis; assay type: functional, organism-based; conditions: Salmonella enterica subsp. enterica serovar Typhimurium, time 7.0 day
[13] = system: RAW264.7; experiment: Inhibition of LPS-stimulated TNF-alpha production in mouse RAW264.7 cells at 1 to 128 ug/ml incubated for 24 hrs by ELISA analysis; assay type: functional, cell-based; conditions: dose 1-128 µg/ml
[14] = system: RAW264.7; experiment: Anti-inflammatory activity in mouse RAW264.7 cells assessed as inhibition of LPS-induced TNF-alpha mRNA expression at 15 ug/ml preincubated with compound for 30 mins followed by LPS stimulation and measured after 4 hrs by RT-PCR analysis; assay type: functional, cell-based; conditions: dose 15.0 µg/ml, time 4.5 hrs
[15] = system: Cell membrane; experiment: Induction of cytoplasmic membrane depolarization in Salmonella typhimurium DT104 assessed as increase in fluorescence intensity at 2 times of MIC incubated for 15 mins by DiSC3-5 dye based fluorescence method; assay type: subcellular; conditions: Salmonella enterica subsp. enterica serovar Typhimurium
[16] = system: Cell membrane; experiment: Induction of membrane damage in Salmonella typhimurium DT104 assessed as membrane stunting at 1 times of MIC incubated for 60 mins by atomic force microscopic analysis; assay type: subcellular; conditions: Salmonella enterica subsp. enterica serovar Typhimurium
[17] = system: RAW264.7; experiment: Anti-inflammatory activity in mouse RAW264.7 cells assessed as inhibition of LPS-induced IL-1beta mRNA expression at 15 ug/ml preincubated with compound for 30 mins followed by LPS stimulation and measured after 4 hrs by RT-PCR analysis; assay type: functional, cell-based; conditions: dose 15.0 µg/ml, time 4.5 hrs
[18] = system: Salmonella typhimurium; experiment: Antibacterial activity against Salmonella typhimurium DT104 infected in ICR mouse model assessed as alleviation of intestinal mucosal damage at 20 mg/kg, ip administered for 3 days and measured on day 7 by H&E staining based analysis; assay type: functional, organism-based; conditions: Salmonella enterica subsp. enterica serovar Typhimurium, time 7.0 day
[19] = system: Salmonella typhimurium; experiment: Antibacterial activity against Salmonella typhimurium CICC 21913 incubated overnight by standard microtiter dilution method; assay type: functional, Salmonella enterica subsp. enterica serovar Typhimurium; conditions: Salmonella enterica
[20] = system: Staphylococcus aureus; experiment: Antibacterial activity against methicillin-resistant Staphylococcus aureus ATCC 43300 incubated overnight by standard microtiter dilution method; assay type: functional
[21] = system: Salmonella typhimurium; experiment: Antibacterial activity against Salmonella typhimurium DT104 infected in ICR mouse model assessed as alleviation of villi shortening at 20 mg/kg, ip administered for 3 days and measured on day 7 by H&E staining based analysis; assay type: functional, organism-based; conditions: Salmonella enterica subsp. enterica serovar Typhimurium, time 7.0 day
[22] = system: Salmonella typhimurium; experiment: Antibacterial activity against Salmonella typhimurium DT104 assessed as reduction in IL-1beta mRNA level in ileum at 20 mg/kg, ip administered for 3 days and measured on day 7 by RT-PCR analysis; assay type: functional, organism-based; conditions: Salmonella enterica subsp. enterica serovar Typhimurium, time 7.0 day
[23] = system: Enterococcus faecalis; experiment: Antibacterial activity against Enterococcus faecalis ATCC 29212 incubated overnight by standard microtiter dilution method; assay type: functional
[24] = system: Salmonella typhimurium; experiment: Antibacterial activity against Salmonella typhimurium DT104 assessed as reduction in IL-15 mRNA level in ileum at 20 mg/kg, ip administered for 3 days and measured on day 7 by RT-PCR analysis; assay type: functional, organism-based; conditions: Salmonella enterica subsp. enterica serovar Typhimurium, time 7.0 day
[25] = system: Salmonella typhimurium; experiment: Antibacterial activity against multi-drug resistant Salmonella typhimurium DT104 assessed as inhibition of bacterial growth at 0.5 to 2 times of MIC by MH agar based serial dilution method; assay type: functional, organism-based; conditions: Salmonella enterica subsp. enterica serovar Typhimurium, time <= 120.0 min, TDE = time-dependent effect
[26] = Antibacterial activity against Salmonella enterica subsp. enterica serovar Choleraesuis ATCC 13312 incubated overnight by standard microtiter dilution method; assay type: functional
[27] = system: Salmonella typhimurium; experiment: Antibacterial activity against Salmonella typhimurium DT104 infected in ICR mouse model assessed as reduction in bacterial translocation to liver at 2 mg/kg, ip administered for 3 days and measured on day 7 by serial dilution method; assay type: functional, organism-based; conditions: Salmonella enterica subsp. enterica serovar Typhimurium, time 7.0 day
[28] = system: Erythrocyte; experiment: Hemolytic activity in human Red blood cells assessed as hemolysis incubated for 1 hrs by absorbance based microplate reader analysis; assay type: toxicity, cell-based
[29] = system: Escherichia coli; experiment: Antibacterial activity against Escherichia coli O157:H7 CICC 21530 incubated overnight by standard microtiter dilution method; assay type: functional
[30] = system: RAW264.7; experiment: Inhibition of LPS-stimulated IL-1beta production in mouse RAW264.7 cells at 1 to 128 ug/ml incubated for 24 hrs by ELISA analysis; assay type: functional, cell-based; conditions: dose 1-128 µg/ml
[31] = system: Salmonella typhimurium; experiment: Antibacterial activity against Salmonella typhimurium DT104 infected in ICR mouse model assessed as increase in ZO-1 expression in villous at 20 mg/kg, ip administered for 3 days and measured on day 7 […] by immunohistochemistry analysis; assay type: functional, organism-based; conditions: Salmonella enterica subsp. enterica serovar Typhimurium, time 7.0 day
[32] = system: Salmonella enterica subsp. enterica serovar Paratyphi B; experiment: Antibacterial activity against Salmonella paratyphi B CICC 21495 incubated overnight by standard microtiter dilution method; assay type: functional
[33] = system: Cell membrane; experiment: Induction of membrane damage in Salmonella typhimurium DT104 assessed as substantial damage to bacterial envelope at 1 times of MIC incubated for 60 mins by transmission electron microscopic analysis; assay type: subcellular; conditions: Salmonella enterica subsp. enterica serovar Typhimurium

C[C@@H](O)[C@H](NC(=O)[C@H](CS)NC(=O)[C@H](CCCCN)NC(=O)[C@H](Cc1c[nH]c2ccccc12)NC(=O)[C@H](CCCCN)NC(=O)[C@@H](N)Cc1c[nH]c2ccccc12)C(=O)N[C@@H](CCCCN)C(=O)N[C@@H](CO)C(=O)NCC(=O)N[C@@H](CS)C(=O)N[C@@H](CCCCN)C(=O)N[C@@H](Cc1c[nH]c2ccccc12)C(=O)N[C@@H](CCCCN)C(=O)N[C@@H](Cc1c[nH]c2ccccc12)C(N)=O (H-WKWKCTKSGCKWKW-NH2)
4 µg/mL: MIC [1] | MIC [29]
8 µg/mL: MIC [19] | MIC [20]
> 128 µg/mL: MHC [28]
2 µg/mL: MIC [23]
1 µg/mL: MIC [26] | MIC [32]
> 90%: viability at 3 h, 1 times of MIC [5]
active: Activity [2] | inhibition [3] | Activity [4] | Activity [6] | Activity [7] | Activity [8] | Activity [9] Dose-Dependent Effect | Activity [10] | Activity [11] | Activity [12] | inhibition [13] | inhibition [14] | Activity [15] | Activity [16] | inhibition [17] | Activity [18] | Activity [21] | Activity [22] | Activity [24] | Activity [25] Tde | Activity [27] | inhibition [30] | Activity [31] | Activity [33]
